Measurements from US20260109732A1, “LIPID AMINES” (ModernaTX, Inc., priority 2021, published 2026).
Where a name gives a salt, the structure may show the parent alone.

Experiments:
[1] = Diameter and PDI from DLS measurements of mRNA nanoparticles with lipid amines; format: physicochemical
Procedure: (§1) Lipids are dissolved in ethanol at a concentration of 24 mg/mL and molar ratios of 49.0:11.2:39.3:0.5 (IL1:DSPC:cholesterol:PEG-DMG-2K) and mixed with the acidification buffer (45 mM acetate buffer at pH 4). The lipid solution and acidification buffer are mixed using a multi-inlet vortex mixer at a 3:7 volumetric ratio of lipid:buffer for mixer 1 and mixer 2 and a 1:3 volumetric ratio of lipid:buffer (25% ethanol) for mixer 3. After a 5 second residence time, the resulting nanoparticles are mixed with 55 mM sodium acetate at pH 5.6 at a volumetric ratio of 5:7 of nanoparticle:buffer. See Table 2a for mixing parameters. The resulting dilute nanoparticles are then buffer exchanged and concentrated using tangential flow filtration (TFF) into a final buffer containing 5 mM sodium acetate pH 5.0. Then a 70% sucrose solution in 5 mM acetate buffer at pH 5 is subsequently added.
(§2) The resulting nanoparticles at a lipid concentration of 7.33 mg/mL in 5 mM acetate (pH 5) and 75 g/L sucrose are mixed with mRNA (luciferease or CFTR) at a concentration of 0.625 mg/mL in 42.5 mM sodium acetate pH 5.0, with N:P of 4.93. The nanoparticle solution and nanoparticles are mixed using a multi-inlet vortex mixer at a 3:2 volumetric ratio of nanoparticle:mRNA. Once loaded with mRNA, these intermediate nanoparticles undergo a 300 second residence time prior addition of neutralization buffer containing 120 mM TRIS pH 8.12 at a volumetric ratio of 5:1 of nanoparticle:buffer.
(§3) For HeLa studies evaluating luciferase protein expression, PEG-DMG-2K dissolved in a 20 mM TRIS buffer (pH 7.5) is added to the neutralized intermediate nanoparticle solution at a ratio of 1:6, bringing the solution to the final molar ratios of IL1:DSPC:cholesterol:PEG-DMG-2K of 48.5:11.1:38.9:1.5%. This nanoparticle formulation is then modified with lipid amines. In a typical example, nanoparticle formulation at a concentration of 0.18 mg/mL mRNA and a 0.56 mL volume is modified with lipid amine SA50 (467.2 nmol) prepared in buffer containing 20 mM TRIS, 14.3 mM sodium acetate, 32 g/L sucrose and 140 mM NaCl-pH 7.5 at a volumetric ratio of 1:1 of nanoparticle:buffer.
(§4) For HeLa studies evaluating CFTR protein expression, the intermediate nanoparticle formulation (1 mL, 0.415 mg mRNA) is mixed with a buffer containing 20 mM TRIS (pH 7.5), 0.9 mg/mL PEG-DMG-2K and lipid amine SA50 (647.1 nmol) at a volumetric ratio of 6:1 of nanoparticle:buffer. The resulting nanoparticle suspension undergoes concentration using a centrifugal filtration device (100 kDa molecular weight cut-off) and is diluted in running buffer (20 mM TRIS, 14.3 mM sodium acetate, and 32 g/L sucrose, pH 7.5) with a 300 mM NaCl solution to a final buffer matrix containing 70 mM NaCl.
(§5) Both resulting nanoparticle suspensions are filtered through a 0.8/0.2 μm capsule filter and filled into glass vials at an mRNA strength of about 0.1-1 mg/mLBliophysical data (Diameter and PDI from DLS measurements and Encapsualtion using Ribogreen assay) for both luciferase and CFTR mRNA nanoparticles with lipid amines is shown in Tables 2c and d, respectively.

[2] = Encapsulation of mRNA nanoparticles with lipid amines using Ribogreen assay; format: physicochemical
Procedure: as §1, §2, §3, §4, §5

[3] = system: HeLa cells; experiment: CFTR Protein Expression Assay in HeLa Cells; format: cell-based, Human; conditions: LNPs encapsulating CFTR mRNA, N=4 wells; 5 h serum-free then 24 h; immunofluorescence vs PBS control
Procedure: as §4
(§6) Lipid nanoparticle compositions were prepared in a manner analogous to that in example 2. To evaluate LNP cellular uptake and protein expression In Vitro, HeLa cells from ATCC.org (ATCC CCL-2) are used. The cells are cultured in complete Minimum Essential Medium (MVEM) and are plated in 96 well Cell Carrier Ultra plate with PDL coated surface (PerkinElmer) prior to running an experiment.
Buffer control (PBS) and LNPs encapsulating cystic fibrosis transmembrane conductance regulator (CFTR) mRNA were dosed with MEM media in the absence of serum (N=4 replicate wells). LNP transfected cells were incubated for 5 h, followed by media removal and supplementation with complete MEM media. Cells were further incubated in complete MEM media overnight (24 h).
Following 24 hr incubation, the cells were fixed with PFA and processed for immunofluorescence (IF) using an anti-CFTR rabbit monoclonal antibody. Briefly, the cells were permeabilized with 0.5% TX-100 for 10 min, blocked with 3% bovine serum albumin (BSA)+PBST for 1 hr at room temperature, and incubated with primary anti-CFTR monoclonal antibody overnight at 4° C. Following primary antibody incubation, the cells were incubated with Alexa 488 conjugated secondary antibody for 30 mi and stained with DAPI and HCS CellMask Blue stain. Between different incubation steps the cells were either washed with PBS or PBST. Cells were imaged using Opera Phoenix spinning disk confocal microscope (PerkinElmer), and CFTR protein expression was detected using the 488 nm channel. The image analysis was performed in Harmony 4.9, with main analysis output being CFTR intensity per cell. The results shown in Table 3b show fold-change in CFTR signal intensity per cell compared to buffer (PBS) control (NA=not available).

[4] = system: HeLa cells; experiment: Luciferase Protein Expression Assay in HeLa Cells; format: cell-based, Human; conditions: LNPs encapsulating Luciferase mRNA, 25 ng per well, N=4 wells; 5 h serum-free then 24 h; ONE-Glo
Procedure: as §3, §6
Cells were transfected with buffer control (PBS) or LNPs encapsulating Luciferase mRNA (25 ng per well; N=4 replicate wells) in serum-free MEM media. LNP transfected cells were incubated for 5 h, followed by media removal and supplementation with complete MEM media. Cells were further incubated in complete MEM media overnight (24 h). Following the 24 hr incubation, luciferase protein expression was measured using the ONE-Glo™ Luciferase Assay (Promega). Cells were lysed using 1× Passive Lysis Buffer (Cat. #E194A) for 10 min in a microplate mixer at room temperature. Luciferase in the supernatant was measured by adding Luciferase Assay Reagent (Cat. #E151A) containing luciferin. Bioluminescence was then immediately measured on a Synergy H1 plate reader (BioTek). The results shown in Table 3a show the Average Relative Light Units (RLU) of each sample tested.

[5] = CFTR mRNA nanoparticle with lipid amine
[6] = Luciferase mRNA nanoparticle modified with lipid amine

Compound: CC(C)CCC[C@@H](C)[C@H]1CC[C@H]2[C@@H]3CC=C4C[C@@H](SSCCC(=O)N(CCCCCCCC(C)(C)N)CCC(C)(C)N)CC[C@]4(C)[C@H]3CC[C@]12C.Cl.Cl [SA139, N-(3-amino-3-methylbutyl)-N-(8-amino-8-methylnonyl)-3-(((3S,8S,9S,10R,13R,14S,17R)-10,13-dimethyl-17-((R)-6-methylheptan-2-yl)-2,3,4,7,8,9,10,11,12,13,14,15,16,17-tetradecahydro-1H-cyclopenta[a]phenanthren-3-yl)disulfaneyl)propanamide dihydrochloride]
- Diameter (nm) [1, 5]: 68.9 nm
- PDI [1, 5]: 0.12
- Diameter (nm) [1, 6]: 72 nm
- PDI [1, 6]: 0.12
- % Encapsulation (Ribogreen) [2, 5]: 99.4%
- % Encapsulation (Ribogreen) [2, 6]: 99.4%
- Average fold-change in CFTR signal intensity per cell compared to buffer control ± standard deviation [3]: 13.3 ± 1.2 fold-change
- Average Relative Light Units ± Standard Deviation [4]: 24497.9 ± 3998.9 Relative Light Units

Compound: CC(C)CCC[C@@H](C)[C@H]1CC[C@H]2[C@@H]3CC=C4C[C@@H](OC(=O)N(CCCC(C)(C)N)CCC(C)(C)N)CC[C@]4(C)[C@H]3CC[C@]12C [SA157, (3S,8S,9S,10R,13R,14S,17R)-10,13-dimethyl-17-((R)-6-methylheptan-2-yl)-2,3,4,7,8,9,10,11,12,13,14,15,16,17-tetradecahydro-1H-cyclopenta[a]phenanthren-3-yl (3-amino-3-methylbutyl)(4-amino-4-methylpentyl)carbamate dihydrochloride]
- Diameter (nm) [1, 5]: 73.9 nm
- PDI [1, 5]: 0.16
- Diameter (nm) [1, 6]: 75 nm
- PDI [1, 6]: 0.13
- % Encapsulation (Ribogreen) [2, 5]: 99.8%
- % Encapsulation (Ribogreen) [2, 6]: 99.6%
- Average fold-change in CFTR signal intensity per cell compared to buffer control ± standard deviation [3]: 15.9 ± 1.4 fold-change
- Average Relative Light Units ± Standard Deviation [4]: 24130.4 ± 4741.7 Relative Light Units

Compound: CC[C@H](CC[C@@H](C)[C@H]1CC[C@H]2[C@@H]3CC=C4C[C@@H](OC(=O)N(CCCCNC(C)CCN)C(C)CCN)CC[C@]4(C)[C@H]3CC[C@]12C)C(C)C (stereo partly drawn) [SA113, (3S,8S,9S,10R,13R,14S,17R)-17-((2R,5R)-5-ethyl-6-methylheptan-2-yl)-10,13-dimethyl-2,3,4,7,8,9,10,11,12,13,14,15,16,17-tetradecahydro-1H-cyclopenta[a]phenanthren-3-yl (4-aminobutan-2-yl)(4-((4-aminobutan-2-yl)amino)butyl)carbamate trihydrochloride]
- Diameter (nm) [1, 6]: 77 nm
- PDI [1, 6]: 0.23
- % Encapsulation (Ribogreen) [2, 6]: 99.7%
- Average Relative Light Units ± Standard Deviation [4]: 20665.4 ± 7510.5 Relative Light Units

Compound: CC(C)CCC[C@@H](C)[C@H]1CC[C@H]2[C@@H]3CC=C4C[C@@H](OC(=O)N(CCCCNC(C)CCN)C(C)CCN)CC[C@]4(C)[C@H]3CC[C@]12C (stereo partly drawn) [SA74, (3S,8S,9S,10R,13R,14S,17R)-10,13-dimethyl-17-((R)-6-methylheptan-2-yl)-2,3,4,7,8,9,10,11,12,13,14,15,16,17-tetradecahydro-1H-cyclopenta[a]phenanthren-3-yl (4-aminobutan-2-yl)(4-((4-aminobutan-2-yl)amino)butyl)carbamate trihydrochloride]
- Diameter (nm) [1, 6]: 75 nm
- PDI [1, 6]: 0.19
- % Encapsulation (Ribogreen) [2, 6]: 99.1%
- Average Relative Light Units ± Standard Deviation [4]: 23899.2 ± 6943.7 Relative Light Units

Compound: CC[C@H](CC[C@@H](C)[C@H]1CC[C@H]2[C@@H]3CC=C4C[C@@H](OC(=O)N(CCCCNCC(F)(F)CN)CC(F)(F)CN)CC[C@]4(C)[C@H]3CC[C@]12C)C(C)C [SA116, (3S,8S,9S,10R,13R,14S,17R)-17-((2R,5R)-5-ethyl-6-methylheptan-2-yl)-10,13-dimethyl-2,3,4,7,8,9,10,11,12,13,14,15,16,17-tetradecahydro-1H-cyclopenta[a]phenanthren-3-yl (3-amino-2,2-difluoropropyl)(4-((3-amino-2,2-difluoropropyl)amino)butyl)carbamate trihydrochloride]
- Diameter (nm) [1, 6]: 73 nm
- PDI [1, 6]: 0.20
- % Encapsulation (Ribogreen) [2, 6]: 97.6%
- Average Relative Light Units ± Standard Deviation [4]: 110.9 ± 26.9 Relative Light Units

Compound: CC(C)CCC[C@@H](C)[C@H]1CC[C@H]2[C@@H]3CC=C4C[C@@H](OC(=O)CCCC(=O)N(CCCCNCCC(C)(C)N)CCC(C)(C)N)CC[C@]4(C)[C@H]3CC[C@]12C [SA121, (3S,8S,9S,10R,13R,14S,17R)-10,13-dimethyl-17-((R)-6-methylheptan-2-yl)-2,3,4,7,8,9,10,11,12,13,14,15,16,17-tetradecahydro-1H-cyclopenta[a]phenanthren-3-yl 5-((3-amino-3-methylbutyl)(4-((3-amino-3-methylbutyl)amino)butyl)amino)-5-oxopentanoate trihydrochloride]
- Diameter (nm) [1, 5]: 79.2 nm
- PDI [1, 5]: 0.14
- % Encapsulation (Ribogreen) [2, 5]: 97.4%
- Average fold-change in CFTR signal intensity per cell compared to buffer control ± standard deviation [3]: 16.2 ± 1.8 fold-change

Compound: CC[C@H](CC[C@@H](C)[C@H]1CC[C@H]2[C@@H]3CC=C4C[C@@H](OC(=O)N(CCCCNC)CCCNC)CC[C@]4(C)[C@H]3CC[C@]12C)C(C)C [SA180, (3S,8S,9S,10R,13R,14S,17R)-17-((2R,5R)-5-ethyl-6-methylheptan-2-yl)-10,13-dimethyl-2,3,4,7,8,9,10,11,12,13,14,15,16,17-tetradecahydro-1H-cyclopenta[a]phenanthren-3-yl (4-(methylamino)butyl)(3-(methylamino)propyl)carbamate dihydrochloride]
- Diameter (nm) [1, 6]: 76 nm
- PDI [1, 6]: 0.17
- % Encapsulation (Ribogreen) [2, 6]: 98.7%
- Average Relative Light Units ± Standard Deviation [4]: 35476 ± 6770.8 Relative Light Units
